Legend:
[1] = test system: glutaraldehyde-fixed bovine pericardium; experiment: Maillard browning of anti-glycation pre-treated tissue discs after in vitro glycation; conditions: for tissue browning due to aggressive glycation: 6 weeks anti-glycation pretreatment at 37° C. (1,5 at pH 9.0), 1-week 50 mM glyoxal, methylglyoxal or glyoxal+5% human serum albumin
Method: A general method flow chart is described below. First, standard 0.6% glutaraldehyde fixation protocol (+/−any additional technology, e.g., anti-calcification). Second, wash protocol in phosphate-buffered saline to remove residual unreacted glutaraldehyde or other compounds. Third, incubation in subject compounds dissolved in, for example, phosphate-buffered saline at 37° C. for 6 weeks. Fourth, wash protocol in phosphate-buffered saline to remove residual unreacted anti-glycation precursor. Fifth, storage (usually in 0.2% glutaraldehyde.
(§1) Anti-glycation pretreatments have been performed for 1-, 2-, 4-, and 6-week-long durations for both 1,5-dihydro-2H-pyrrol-2-one as well as 4-(1-methyl-1H-imidazol-4-yl)butanal, and diversified 1-week glycation reactions have been applied to these samples. Namely, these conditions are 50 mM glyoxal, 50 mM methylglyoxal, and 50 mM glyoxal+5% human serum albumin. An antibody for N-carboxyethyl lysine, a major product of methylglyoxal glycation, was utilized for immunohistochemical staining.
“Maillard browning” is a classic and straightforward visual indicator of glycation. Formation of glycation products causes brown hues to develop in glycated tissues and proteinaceous materials. As a preliminary endpoint for initial anti-glycation efficacy studies, the inventors sought to evaluate prevention of browning due to glycation in glutaraldehyde-fixed bovine pericardium, the most common bioprosthetic heart valve biomaterial (and also widely used in other bioprosthetic implants), by pretreatment with the designed anti-glycation compounds. Short term (3-day) and long-term (6-week) protective incubation durations at physiological temperature (37° C.) were chosen as a starting point. Anti-glycation was followed by extensive washing of tissue in phosphate-buffered saline (PBS) to remove any unreacted anti-glycation precursor and extreme glycation conditions (1-week incubation in 50 mM doses of either methylglyoxal or glyoxal, two of the most reactive physiologically-relevant glycation precursors, or 50 mM glyoxal+5% human serum albumin, which exacerbates browning). Treatments and evaluation of browning have been performed with 1,5-dihydro-2H-pyrrol-2-one (“1,5,” compound 3) and 4-(1H-Imidazol-4-yl)butanal (“4IB”).

[2] = test system: N-carboxymethyl lysine (CML); experiment: Immunohistochemistry with anti-CML antibody after glyoxal glycation; design: species or system bovine
Method: As a preliminary specific chemical analysis, immunohistochemistry was performed using a standard anti-CML (AbCAM #ab27684 @ 1:5000 dilution) antibody to probe for the best-studied glycation product, N-carboxymethyl lysine, after control or anti-glycated glutaraldehyde-fixed bovine pericardium tissue discs were glycated under aggressive conditions known to efficiently generate CML (one week incubation at 37° C. in 50 mM glyoxal). Brown staining indicates presence of CML.

[3] = test system: N-carboxyethyl lysine (CEL); experiment: Immunohistochemistry with antibody for N-carboxyethyl lysine after methylglyoxal glycation; design: species or system bovine; conditions: anti-glycated vs untreated tissue
Method: as §1

[4] = test system: glutaraldehyde-fixed bovine pericardium (Glut-BP); experiment: Uptake of 14C-radiolabeled glyoxal by glut-BP; conditions: 6-week pre-incubation at 37° C., 1× (7.2 μmol/mg glut-BP); 24 hours at 37° C. in 50 mM 14C-glyoxal
Method: FIG. 9. Bar graph of the quantitation of uptake by glutaraldehyde-fixed bovine pericardium (Glut-BP) of radioactively-labeled glycation precursor after 24 hours of incubation at 37° C. in 50 mM ^14C-radiolabeled glyoxal. Glut-BP was either kept in phosphate-buffered saline solution (PBS) in storage at 4° C. or placed in pre-incubation at 37° C. in PBS, PBS+1×1,5-dihydro-2H-pyrrol-2-one at 7.2 μmol/mg glut-BP, or PBS+1×4-(1-methyl-1H-imidazol-4-yl)butanal at 7.2 μmol/mg glut-BP.
The above interpretations are supported by quantitation of uptake of glycation precursor by glut-BP using carbon-14-radiolabeled glyoxal, which indicates approximately 15% decreases in overall glycation versus by an extreme concentration (50 mM) of glyoxal in glut-BP pre-treated by 6-week incubation at 37° C. in PBS alone or 1×1,5 or 1×4IB, shown in FIG. 9.

Row | Compound | protection against optical browning ([1]; 50 mM glyoxal, 50 mM methylglyoxal, or 50 mM glyoxal+5% HSA for 7 days at 37° C.) | tissue browning due to aggressive glycation [1] | incorporation of glycated (browned) albumin (tissue color, precursor alone vs precursor plus albumin) ([1]; 6 weeks pretreatment, 50 mM glyoxal+5% human serum albumin) | CML formation in response to glyoxal ([2]; anti-glycated vs untreated tissue) | CML formation ([2]; pretreatment for 6 weeks, one week incubation at 37° C. in 50 mM glyoxal) | CEL formation in response to methylglyoxal [3] | decrease in overall glycation (uptake of 14C-glyoxal) [4]
1 | O=C1C=CCN1 [Compound 3, 1,5-dihydro-2H-pyrrol-2-one] | dramatic protection | dramatic diminishment of tissue browning | effectively blocks incorporation of glycated (browned) albumin | still formed similarly as in untreated tissue | not mitigated | still formed similarly as in untreated tissue | approximately 15%
2 | O=CCCCc1c[nH]cn1 [Compound 5, 4-(1H-Imidazol-4-yl)butanal] |  | Protection from browning is less pronounced |  |  |  |  | approximately 15%

From patent US20220105244A1, “METHODS AND COMPOSITIONS FOR PROTECTION OF BIOPROSTHETIC HEART VALVE TISSUE FROM GLYCATION AND ASSOCIATED PROTEIN INCORPORATION” (The Trustees of Columbia University in the City of New York, priority 2019, published 2022)
